These results are taken from patent US9902725B2, “Heterocyclic derivatives as RORgamma modulators” (GENFIT, priority 2014, dated 2018).

Bounds are passed on as bounds.

Data set [1] is described as follows: Microsomal stability, human microsomes (CEREP). Conditions: 0.1 μM, 0.1 mg/mL microsomal protein. The class given is in vitro ADME. As to the method: (§1) All the assays were conducted at CEREP (CEREP, France and USA). Metabolic compound stability was tested in human (CEREP, Ref 607) and mouse (CEREP, Ref: 806) microsomes. Inhibition of human drug-metabolizing cytochromes P450 was tested on the five most commonly responsible enzymes of metabolism of xenobiotics, CYP1A2 (CEREP, Ref 389), CYP2C9 (CEREP, Ref 412), CYP2C19 (CEREP, Ref 390), CYP2D6 (CEREP, Ref 1338) and CYP3A4 (CEREP, Ref 391).
(§2) Briefly, the standard conditions for CEREP's stability assays include incubation of test compound at 0.1 μM with human or mouse microsomes for 60 minutes in duplicate. The protein concentration of microsomes is 0.1 mg/mL. The parent compound is detected by HPLC-MS/MS analysis. The quantity of the parent compound that remains intact upon 60 minutes of microsome exposure (% remaining) is calculated by comparing the peak area of the parent compound at 60 minutes of exposure to the time zero.

The target of data set [2] is CYP2C9 (Homo sapiens, UniProt P11712). Nature of the data set: CYP inhibition CYP2C9 (CEREP). The class given is in vitro ADME. To be noted: human, recombinant CYP2C9, human recombinant CYP, single concentration (typically 10 μM); read-out: CYP 2C9 (% inhibition of Control). As to the method: as §1
Chain of CYP2C9 (P11712 whole entry, canonical isoform): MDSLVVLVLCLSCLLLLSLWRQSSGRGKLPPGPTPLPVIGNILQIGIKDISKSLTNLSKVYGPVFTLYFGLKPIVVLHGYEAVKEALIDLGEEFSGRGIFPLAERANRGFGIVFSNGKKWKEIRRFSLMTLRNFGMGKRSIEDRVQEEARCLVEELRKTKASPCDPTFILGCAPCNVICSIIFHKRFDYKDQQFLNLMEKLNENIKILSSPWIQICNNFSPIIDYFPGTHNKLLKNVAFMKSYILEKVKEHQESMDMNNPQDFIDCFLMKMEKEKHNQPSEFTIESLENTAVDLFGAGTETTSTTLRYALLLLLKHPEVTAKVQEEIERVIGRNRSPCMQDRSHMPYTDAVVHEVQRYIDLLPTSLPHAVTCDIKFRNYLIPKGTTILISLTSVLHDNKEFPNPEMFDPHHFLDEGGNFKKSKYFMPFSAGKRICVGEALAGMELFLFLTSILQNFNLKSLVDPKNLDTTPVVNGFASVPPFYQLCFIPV
(§3) Briefly, CEREP's CYP inhibition assay uses traditional probe substrates, which are specific to individual CYP isoforms. 3-cyano-7-ethoxycoumarin is mainly catalyzed by CYP1A2 and CYP2C19, 3-[2-(N,N-diethyl-N-methylammonium)ethyl]-7-methoxy-4-methylcoumarin for CYP2C9 and CYP2D6 and finally, 7-benzyloxy-4-trifluoromethylcoumarin is pathway catalyzed predominantly by CYP3A4. The inhibition assays were performed with human recombinant CYP isoforms preparations. HPLC MS/MS methods are used to detect metabolites in these assays. Compounds were tested at single concentrations (typically 10 μM) and data were expressed as percent of control inhibition.

Data set [3] has as its target CYP3A4 (Homo sapiens, UniProt P08684). Nature of the data set: CYP inhibition CYP3A4 (CEREP). To be noted: human, recombinant CYP3A4, probe 7-benzyloxy-4-trifluoromethylcoumarin, single concentration (typically 10 μM), read-out: CYP 3A4 (% inhibition of Control). The class given is in vitro ADME. As to the method:
as §1, §3

Data set [4] deals with CYP2D6 (Homo sapiens, UniProt P10635). The experiment in a line: CYP inhibition CYP2D6 (CEREP). Format: in vitro ADME. Conditions: human, recombinant CYP2D6, human recombinant CYP, single concentration (typically 10 μM); read-out: CYP 2D6 (% inhibition of Control). The method, then: as §1, §3
Chain of CYP2D6 (P10635 whole entry): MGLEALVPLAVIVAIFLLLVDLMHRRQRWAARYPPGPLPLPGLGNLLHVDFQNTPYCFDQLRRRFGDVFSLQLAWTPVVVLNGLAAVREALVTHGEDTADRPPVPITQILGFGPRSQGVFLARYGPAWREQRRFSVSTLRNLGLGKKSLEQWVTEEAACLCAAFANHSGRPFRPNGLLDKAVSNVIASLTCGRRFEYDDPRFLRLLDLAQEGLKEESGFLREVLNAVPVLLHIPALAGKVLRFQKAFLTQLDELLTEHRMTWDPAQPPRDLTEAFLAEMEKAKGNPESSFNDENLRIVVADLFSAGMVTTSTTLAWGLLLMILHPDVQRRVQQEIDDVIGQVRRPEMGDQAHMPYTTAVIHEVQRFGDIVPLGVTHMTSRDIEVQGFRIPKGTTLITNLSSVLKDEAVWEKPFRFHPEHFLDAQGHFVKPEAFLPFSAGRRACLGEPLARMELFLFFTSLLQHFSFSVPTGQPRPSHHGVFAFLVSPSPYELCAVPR
In data set [5] the target is T1, CYP1A2 (Homo sapiens, UniProt P05177).
T1 sequence (P05177 1-516): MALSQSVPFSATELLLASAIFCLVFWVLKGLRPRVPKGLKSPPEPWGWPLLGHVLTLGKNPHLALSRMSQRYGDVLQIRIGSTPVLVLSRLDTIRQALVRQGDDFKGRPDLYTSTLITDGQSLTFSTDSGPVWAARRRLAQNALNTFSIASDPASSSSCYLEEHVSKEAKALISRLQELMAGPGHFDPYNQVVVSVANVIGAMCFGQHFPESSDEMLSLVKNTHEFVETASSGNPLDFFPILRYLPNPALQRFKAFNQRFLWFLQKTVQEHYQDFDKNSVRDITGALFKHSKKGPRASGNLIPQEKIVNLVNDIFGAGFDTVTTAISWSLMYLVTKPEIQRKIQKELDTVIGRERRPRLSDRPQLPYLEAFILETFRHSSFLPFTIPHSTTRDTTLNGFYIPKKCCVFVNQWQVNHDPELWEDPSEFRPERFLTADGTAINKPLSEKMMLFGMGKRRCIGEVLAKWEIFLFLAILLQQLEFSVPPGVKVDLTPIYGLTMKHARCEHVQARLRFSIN
The experiment in a line: CYP inhibition CYP1A2 (CEREP). The class given is in vitro ADME. Conditions: human, recombinant CYP1A2, probe 3-cyano-7-ethoxycoumarin, single concentration (typically 10 μM), read-out: CYP 1A2 (% inhibition of Control). As to the method:
as §1, §3

The target of data set [6] is T2, RORγt ligand-binding domain (RORγt-LBD) (Homo sapiens, UniProt P51449).
T2 construct: 20 nM recombinantly expressed RORγ-LBD fused to GST
T2 sequence (P51449 269-508 limits assumed): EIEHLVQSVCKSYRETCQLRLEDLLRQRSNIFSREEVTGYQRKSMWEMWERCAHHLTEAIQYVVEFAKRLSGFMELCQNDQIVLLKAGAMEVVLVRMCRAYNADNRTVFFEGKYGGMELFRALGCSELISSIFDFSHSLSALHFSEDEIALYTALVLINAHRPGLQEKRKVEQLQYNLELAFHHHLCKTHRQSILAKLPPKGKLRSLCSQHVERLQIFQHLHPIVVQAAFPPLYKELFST
The experiment in a line: Time-resolved FRET (TR-FRET) RORγt coactivator assay. To be noted: GST-RORγ-LBD, biotinylated RIP140 peptide, coactivator displacement. The class given is biochemical.

Data set [7] is described as follows: Microsomal stability, mouse microsomes (CEREP). Format: in vitro ADME. To be noted: 0.1 μM, 0.1 mg/mL microsomal protein. The method, then:
as §1, §2

Chain of CYP3A4 (P08684 whole entry): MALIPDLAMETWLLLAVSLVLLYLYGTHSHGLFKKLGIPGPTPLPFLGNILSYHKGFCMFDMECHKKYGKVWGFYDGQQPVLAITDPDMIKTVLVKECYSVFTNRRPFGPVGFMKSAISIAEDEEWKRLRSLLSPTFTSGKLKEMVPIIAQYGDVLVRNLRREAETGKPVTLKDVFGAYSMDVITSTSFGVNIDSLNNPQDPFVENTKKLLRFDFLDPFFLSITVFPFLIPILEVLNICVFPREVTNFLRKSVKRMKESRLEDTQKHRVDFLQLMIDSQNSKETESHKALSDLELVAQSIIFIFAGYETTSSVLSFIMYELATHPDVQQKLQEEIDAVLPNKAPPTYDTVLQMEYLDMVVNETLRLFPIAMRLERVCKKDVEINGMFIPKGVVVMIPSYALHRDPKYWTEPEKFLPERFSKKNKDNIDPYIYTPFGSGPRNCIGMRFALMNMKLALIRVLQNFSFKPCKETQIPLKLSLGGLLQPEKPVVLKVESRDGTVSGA

What is called inhibition is the change of the read-out against control, counted positive when it falls. For orientation: IC50 means the concentration that inhibits the measured activity by half. As to `O=C(O)CCc1c[nH]c2ccc(CC(=O)NC(c3ccccc3)c3ccccc3N3CCCCC3)cc12` (stereo not shown) [Cpd. 1, 3-{5-[({phenyl[2-(piperidin-1-yl)phenyl]methyl}carbamoyl)methyl]-1H-indol-3-yl}propanoic acid], in data set [1], the “Human microsomes (% Cpd. remaining at 60 min)” value is recorded as 54%. Moreover, the inhibition at 10 µM in data set [2] was 12%; in data set [3] it was 19%; in data set [4], 49%; in data set [5], 1%. This compound also yielded an IC50 in data set [6] below 1 µM. Moreover, the “Mouse microsomes (% Cpd. remaining at 60 min)” value in data set [7] was 35%.
On to `O=C(O)CCc1c[nH]c2ccc(CC(=O)NC(c3cccc(F)c3)c3ccccc3N3CCCCC3)cc12` (stereo not shown) [Cpd. 3, 3-[5-({[(3-fluorophenyl)[2-(piperidin-1-yl)phenyl]methyl]carbamoyl}methyl)-1H-indol-3-yl]propanoic acid], for which the “Human microsomes (% Cpd. remaining at 60 min)” value in data set [1] is 36%. Also, the inhibition at 10 µM in data set [2] is 52.7%; in data set [3] it was 60.9%; in data set [4], -2%; in data set [5], 2.9%. In data set [6], the IC50 is below 1 µM. The “Mouse microsomes (% Cpd. remaining at 60 min)” value in data set [7] is listed as 22%.
`Cc1ccc(C(NC(=O)Cc2ccc3[nH]cc(CCC(=O)O)c3c2)c2ccccc2)c(N2CCCC2)c1` (stereo not shown) [Cpd. 5, 3-{5-[({[4-methyl-2-(pyrrolidin-1-yl)phenyl](phenyl)methyl}carbamoyl)methyl]-1H-indol-3-yl}propanoic acid]: in data set [1], the “Human microsomes (% Cpd. remaining at 60 min)” value worked out at 89%. The inhibition at 10 µM was 35.9% in data set [2], 25.8% in data set [3], 13.5% in data set [4] and 4.4% in data set [5]. For the same compound, in data set [6], the IC50 was below 1 µM. In data set [7], the “Mouse microsomes (% Cpd. remaining at 60 min)” value is recorded as 50%.
`CC(C)CC(NC(=O)Cc1ccc2[nH]cc(CCC(=O)O)c2c1)c1ccccc1N1CCCCC1` (stereo not shown) [Cpd. 29, 3-{5-[({3-methyl-1-[2-(piperidin-1-yl)phenyl]butyl}carbamoyl)methyl]-1H-indol-3-yl}propanoic acid]: the “Human microsomes (% Cpd. remaining at 60 min)” value in data set [1] is given as 23%. The inhibition at 10 µM in data set [2] is 14.9%; in data set [3], 47.2%; in data set [4], 18.2%; in data set [5], -8.2%. In addition, the IC50 in data set [6] was below 1 µM. Also, the “Mouse microsomes (% Cpd. remaining at 60 min)” value in data set [7] came to 20%.
On to `O=C(O)CCc1c[nH]c2ccc(CC(=O)NC(c3ccccc3)c3ccc(C(F)(F)F)cc3N3CCCC3)cc12` (stereo not shown) [Cpd. 48, 3-{5-[({phenyl[2-(pyrrolidin-1-yl)-4-(trifluoromethyl)phenyl]methyl}carbamoyl)methyl]-1H-indol-3-yl}propanoic acid], for which the “Human microsomes (% Cpd. remaining at 60 min)” value in data set [1] turned out to be 83%. Further, the inhibition at 10 µM turned out to be 24.6% in data set [2], 33.7% in data set [3], 78.9% in data set [4] and 10.7% in data set [5]. In data set [6], the IC50 was below 1 µM. Further, in data set [7], the “Mouse microsomes (% Cpd. remaining at 60 min)” value is 53%.
For the compound `O=C(O)CCc1c[nH]c2ccc(CC(=O)NC(c3ccccc3)c3ccc(Br)cc3N3CCCC3)cc12` (stereo not shown) [Cpd. 50, 3-{5-[({[4-bromo-2-(pyrrolidin-1-yl)phenyl](phenyl)methyl}carbamoyl)methyl]-1H-indol-3-yl}propanoic acid], the “Human microsomes (% Cpd. remaining at 60 min)” value in data set [1] is given as 92%. Also, the inhibition at 10 µM in data set [2] stood at 15.8%; in data set [3], 36.8%; in data set [4], 26.5%; in data set [5], 0.9%. This compound also yielded an IC50 in data set [6] below 1 µM. Further, the “Mouse microsomes (% Cpd. remaining at 60 min)” value in data set [7] is recorded as 38%.
For `Cc1ccc(C(NC(=O)Cc2ccc3[nH]cc(CCC(=O)O)c3c2)c2ccccc2)c(N2CCCCC2)c1` (stereo not shown) [Cpd. 77, 3-{5-[({[4-methyl-2-(piperidin-1-yl)phenyl](phenyl)methyl}carbamoyl)methyl]-1H-indol-3-yl}propanoic acid], the “Human microsomes (% Cpd. remaining at 60 min)” value in data set [1] is 88%. In addition, the inhibition at 10 µM in data set [2] was 23.2%; in data set [3] it was 31.3%; in data set [4], 6.2%; in data set [5] it was -0.9%. In addition, in data set [6], the IC50 was below 1 µM. Moreover, the “Mouse microsomes (% Cpd. remaining at 60 min)” value in data set [7] worked out at 31%.
Consider `COc1ccc(C(NC(=O)Cc2ccc3[nH]cc(CCC(=O)O)c3c2)c2ccccc2)c(N2CCCCC2)c1` (stereo not shown) [Cpd. 111, 3-{5-[({[4-methoxy-2-(piperidin-1-yl)phenyl](phenyl)methyl}carbamoyl)methyl]-1H-indol-3-yl}propanoic acid], for which the “Human microsomes (% Cpd. remaining at 60 min)” value in data set [1] came out at 88%. The inhibition at 10 µM is 28.2% in data set [2], 40.1% in data set [3], 7.5% in data set [4] and -12.4% in data set [5]. For the same compound, the IC50 in data set [6] was below 1 µM. Besides, the “Mouse microsomes (% Cpd. remaining at 60 min)” value in data set [7] worked out at 37%.
Take `Cc1ccc(C(NC(=O)Cc2ccc3[nH]cc(CCC(=O)O)c3c2)c2ccccc2)c(N(C)C)c1` (stereo not shown) [Cpd. 192, 3-{5-[({[2-(dimethylamino)-4-methylphenyl](phenyl)methyl}carbamoyl)methyl]-1H-indol-3-yl}propanoic acid]: the “Human microsomes (% Cpd. remaining at 60 min)” value in data set [1] was 79%. Besides, the inhibition at 10 µM in data set [2] is 28.6%; in data set [3], 30.9%; in data set [4] it was 4.3%; in data set [5], -1.9%. For the same compound, in data set [6], the half-maximal inhibitory concentration (IC50) is below 1 µM. The “Mouse microsomes (% Cpd. remaining at 60 min)” value in data set [7] came to 66%.
On to `O=C(O)CCCc1c[nH]c2ccc(CC(=O)NC(c3ccccc3)c3ccccc3N3CCCCC3)cc12` (stereo not shown) [Cpd. 212, 4-{5-[({phenyl[2-(piperidin-1-yl)phenyl]methyl}carbamoyl)methyl]-1H-indol-3-yl}butanoic acid], for which, in data set [1], the “Human microsomes (% Cpd. remaining at 60 min)” value is 26%. Besides, the inhibition at 10 µM in data set [2] is 29.5%; in data set [3] it was 31%; in data set [4], -6.3%; in data set [5], -5.4%. Moreover, the IC50 in data set [6] was below 1 µM. The “Mouse microsomes (% Cpd. remaining at 60 min)” value in data set [7] was found to be 11%.
